In ChEMBL document CHEMBL3507680, “University of Dundee, Gates Library screen for HepG2 cell viability”:

experiment: Human HepG2 cell viability assay in 384 well format; assay type: toxicity, cell-based; parameters: dose 125 nL, time 70.5 hour; cytotoxicity at 70.5 h: concentration not given beside the values; details: HepG2 cells, read-out: Inhibition

Point of comparison: `COc1cccc(-c2cnc3n2CCC32CCN(C(C)=O)CC2)c1`, cytotoxicity at 70.5 h -3.5%. Against it:
- CN1CCN(C(=O)c2nc3c(o2)CN(C(=O)c2cccnc2)C3)CC1 — lower, -6.31%
- c1csc(CN2C[C@@H](n3cccn3)[C@H]3OCCC[C@H]32)c1 — higher, -3.02%
- Cc1nc(CNC2CC(=O)N(CCc3cccc(Cl)c3)C2)c[nH]1 (stereo not drawn) — lower, -5.42%
- CN(C)C(=O)CN1CCC2(CC1)CN(S(C)(=O)=O)Cc1ccccc1O2 — lower, -4.65%
- CC(=O)Nc1nc(C(=O)N2CCCC(n3ccnc3)C2)cs1 (stereo not drawn) — higher, -0.488%
- NCc1n[nH]c(-c2ccc(Br)cc2)n1 — higher, 2.27%
- Cc1ncnc2c1CCN(C(=O)c1ccnnc1)CC2 — higher, -2.5%
- CC(=O)c1cccc(OCC(=O)NS(=O)(=O)c2ccc(Br)s2)c1 — higher, -2.56%
- O=C1Nc2ccccc2NC12CCN(c1cccc(C(F)(F)F)n1)CC2 — higher, 52.4%
- Cc1nc(C)n(C2CCCN(C(=O)CCn3cncn3)C2)n1 (stereo not drawn) — higher, -0.0645%
- CCCc1nn(C2CCCN(C(C)C)C2=O)c(=O)o1 (stereo not drawn) — lower, -9.22%
- C1CC(CN2C[C@@H]3C[C@@H](c4nnc(C5CC5)o4)O[C@@H]3C2)CCO1 — lower, -7.69%
- CCNC(=O)NC(c1ccc(C)cc1)c1cccc(S(C)(=O)=O)c1 (stereo not drawn) — lower, -11%
- O=C(C1CC1)N1CCC[C@]2(C[C@@H](OCc3ccncc3)CO2)C1 — higher, 0.889%
- Cc1ncsc1CCN(C)C(=O)CN1CCOc2ccccc2C1 — higher, 0.856%
- N#CCCN(Cc1ccccn1)C(=O)Nc1cccc(F)c1 — lower, -6.04%
- Cc1ccc(C(=O)N2CCC3(CCN(c4ccsc4)C3=O)C2)cn1 (stereo not drawn) — higher, 6.79%
- CN1N=C(C(=O)N(Cc2ccco2)C2CCCC2)CCC1=O — lower, -9.57%
- COc1cn(-c2ccccc2)nc1C(=O)NCCN1CCCC(C)C1 (stereo not drawn) — lower, -7.85%
- COCCN1C(=O)CC(N2CCN(c3ccc(F)cc3)CC2)C1=O (stereo not drawn) — higher, 13.6%
- O=C(C1CCC1)N1CCN(Cc2cccnc2)[C@H]2CS(=O)(=O)C[C@H]21 — higher, -2.54%
- CCc1csc(C2CCCN(C(=O)c3cc(Cl)c[nH]3)C2)n1 (stereo not drawn) — higher, 2.15%
- CCn1cc(C(=O)NCc2csc(C3CC3)n2)c(C)n1 — lower, -3.62%
- CCCc1nc(C)c(CN2CC3(CCOC3)CCC2=O)s1 (stereo not drawn) — lower, -8.32%
- CC(C)c1nccn1-c1cccc(C2CCN(C)CC2)n1 — higher, 27.3%
- CCCS(=O)(=O)N1CCC2(CC1)CCn1c(-c3cnn(C)c3)cnc12 — lower, -11.3%
- COc1ccccc1CC(=O)NCc1ccnc(NC2CC2)c1 — higher, -0.149%
- Cc1ccsc1CN(CCN(C)C)C(=O)c1ccccc1C#N — higher, -0.2%
- O=c1oc(-c2ccc(F)cc2)nn1CCS(=O)(=O)c1ccccc1 — lower, -9.58%
- Cc1nnc2n1CCN(C(C(=O)N1CCCCC1)c1ccccc1)C2 (stereo not drawn) — higher, -1.38%
- CCC1(CC)C(=O)NC(=O)N=C1Nc1ccc(C)cc1 — lower, -10.3%
- Cc1ccc2c(c1)N(C(=O)C1CCCOC1)CCC2 (stereo not drawn) — lower, -4.9%
- Cc1cc(N[C@H](CO)c2ccccc2)n2nc(C)cc2n1 — higher, -1.18%
- CC(=O)NCc1cc2n(n1)CCN(Cc1cccc(Cl)c1Cl)C2 — higher, 0.275%
- CN(C)C1CCN(C(=O)C2SCCc3ccccc32)CC1 (stereo not drawn) — lower, -6.27%
- CCc1ncc(C(=O)N2CCC(O)(CN3CCOCC3)C(C)(C)C2)cn1 (stereo not drawn) — higher, -0.715%
- COc1ccc2nnc(CCCC(=O)NCCc3ccccn3)n2n1 — lower, -3.59%
- CN(C)C(=O)CN1CCC2(CCN(S(C)(=O)=O)CC2)C1=O — higher, -0.161%
- Cc1cccnc1N1CCC(c2nccn2Cc2cscn2)CC1 — higher, -0.624%
- Cc1occc1C(=O)N1CCCN(Cc2ncc(Cl)n2C)CC1 — lower, -7.84%
- CSCC(C)(O)CNC(=O)Nc1ccc(C)cc1Br (stereo not drawn) — higher, -3.05%
- Cc1cccc(N(C)S(=O)(=O)c2cc(C(=O)O)cs2)c1 — higher, 14.1%
- Cc1cc(-c2nccs2)nc(C2CCN(Cc3cccs3)CC2)n1 — lower, -5.42%
- Cn1cc(CN2CCC(c3ccncc3)CC2)cn1 — lower, -9.54%
- CN(C)c1nccc(N2CCO[C@H]3CN(Cc4ccsc4)C[C@H]32)n1 — lower, -6%
- Cc1cc(C)c(S(=O)(=O)Nc2ccccc2CC(F)(F)F)cc1C(=O)O — lower, -8.62%
- COCCNc1nnc(-c2ccc(C)nc2)s1 — higher, 1.91%
- CC(NCc1cc2cc(F)ccc2o1)c1nnc2n1CCCC2 (stereo not drawn) — lower, -5.97%
- CN(Cc1ccc2c(c1)OCCO2)Cn1nc(C(C)(C)C)ccc1=O — higher, 12.7%
- Cc1nc(CN2C[C@@H]3CN(C(=O)c4ccoc4C)C[C@@H]3C2)cs1 — higher, 28.2%
- Cc1nc(CC(=O)N2CCCC(n3ccnc3C(C)C)C2)cs1 (stereo not drawn) — lower, -6.07%
- Cc1ncsc1C(=O)N(C)Cc1cccnc1 — lower, -9.5%
- COc1ccc(CN2CCCC2)cc1Oc1ccc(NC(C)=O)cc1 — higher, -3.35%
- CS(=O)(=O)CCCOc1cccc(-n2ccnc2)c1 — higher, -2.41%
- CC(C)(N)C(=O)N1CCC(c2nccnc2Oc2ccccc2F)CC1 — higher, 7.72%
- COc1ccc(C)cc1-n1ccc(C(=O)NCC2CCCOC2)n1 (stereo not drawn) — lower, -11.7%
- CCn1ccnc1CN1CCCN(C(=O)c2sccc2C#N)CC1 — higher, 1.96%
- Cc1ccc(C)c2c(O)cc(CN3CCC(=O)NCC3C)nc12 (stereo not drawn) — lower, -8.42%
- COCCN1CCC2(COCCN(Cc3ccc4c(c3)OCO4)C2)C1 (stereo not drawn) — lower, -9.54%
- Cc1nn(C)c(N(C)C)c1CNCc1ccc2c(c1)OCO2 — higher, 29.5%
- CCCNC(=O)N1CCC(Oc2cc(C)ccc2F)(C(=O)O)CC1 — higher, 10.3%
- Cc1ccc2c(c1)SCC(=O)N2CC(=O)N1CCC[C@H]1c1nc(C)no1 — lower, -5.13%
- CC(NC(=O)NCCCn1ccnc1)c1ccc2c(c1)CCC(=O)N2 (stereo not drawn) — higher, 43.4%
- O=C(Nc1nnc(N2CCCCC2)[nH]1)c1cccs1 — higher, -0.727%
- CC(C(=O)NCc1ccnc(N2CCCCCC2)c1)n1cccn1 (stereo not drawn) — higher, 17.8%
- Cc1noc(COCC(=O)N2CCCC(c3nccs3)C2)n1 (stereo not drawn) — lower, -6.88%
- CN(C)C(c1ccccn1)[C@H]1CC[C@H](CNC(=O)CC2CCCC2)CC1 (stereo partly drawn) — lower, -7.26%
- CN1C(=O)C2(CCN(CC3CC3)CC2)c2ccccc21 — higher, -2.61%
- Fc1ccc(-c2cc(NCCC3CCOC3)n3nccc3n2)cc1 (stereo not drawn) — higher, 0.148%
- CC(C)OCCCNC(=O)CN1C=Nc2ccccc2S1(=O)=O — lower, -7.79%
- CCN1C[C@H]2CCN(C(=O)Nc3ccccc3C)CC[C@H]2S1(=O)=O — higher, 15.6%
- O=C(NCc1cccc(N2CC=CC2)c1)NCC(F)(F)F — higher, -2.26%
- Cc1cnc(N2C[C@H]3CCN(CC4CC4)C[C@@H]3C2)nc1 — higher, 7.8%
- CC(C)n1ccnc1Cn1ccc2ncccc2c1=O — higher, -0.693%
- COc1ccc(CN2CCC(O)(CN3CCCCC3)C2)c(C)c1 (stereo not drawn) — higher, -1.76%
- N#Cc1ccc(NCCS(=O)(=O)N2CCc3ccccc32)nc1 — higher, 13%
- COc1ncccc1CNC(=O)NCCNS(C)(=O)=O — higher, -2.56%
- NC(=O)CN1CCC(NC2CCCCc3ccccc32)CC1 (stereo not drawn) — higher, 5.24%
- O=C(CCNS(=O)(=O)c1ccccc1)NCc1ccoc1 — lower, -9.84%
- CC(C(=O)Nc1ccnn1C(C)C)N1CCN(Cc2ccccc2)CC1 (stereo not drawn) — lower, -7.81%
- N#CCCN(Cc1ccco1)C(=O)CCCc1ccccc1 — lower, -4.22%
- Cn1cnc(S(=O)(=O)N2CCCC2c2cnccn2)c1 (stereo not drawn) — lower, -9.6%
- Cc1cc(CNc2nccc(N)n2)c2[nH]c(C)c(C)c2c1 — higher, 1.64%
- CC(C)NC(=O)C1CN(C(=O)Nc2ccc(F)cc2)CC12CCOCC2 (stereo not drawn) — lower, -6.35%
- Cc1cccc(CNc2ccc(C(=O)N3CCC(CO)CC3)cc2)c1 — lower, -5.19%
- Cn1cnc2c1CCN(Cc1nc(-c3ccsc3)no1)C2 — higher, 32.4%
- C[C@H](c1ccc(F)cc1)n1c(C2CCC2)n[nH]c1=O — lower, -12.6%
- COc1nc2c(cc1C(=O)NCc1noc(Cc3cccs3)n1)CCC2 — higher, -3.41%
- Cc1cnn(CC2CCCCN2C(=O)c2sccc2C#N)c1 (stereo not drawn) — lower, -4.1%
- Cc1ccc(C(=O)NCCCN(C(C)C)S(C)(=O)=O)c(=O)[nH]1 — lower, -5.61%
- Cc1cccc(CN(Cc2nc3c(cnn3C)c(=O)[nH]2)C2CC2)c1 — lower, -6.88%
- CCc1ccc(C(C)NC(=O)N2CCC(n3cncn3)CC2)cc1 (stereo not drawn) — lower, -8.05%
- CNS(=O)(=O)c1ccc(CNC(=O)N2CCOC(C)C2)cc1 (stereo not drawn) — higher, 10.2%
- Cc1ccc(C2CCCCCN2C(=O)Nc2cn[nH]c2)o1 (stereo not drawn) — lower, -6.84%
- O=C(NCC1CC1)[C@H]1CC[C@@H]2[C@@H](CCN2Cc2ccoc2)O1 — lower, -12.5%
- N#Cc1cccc(C(=O)N2CCC3(CCC(=O)N(C4CC4)C3)CC2)c1 — higher, 6.81%
- COc1c(C2CCCN2c2ncnc3sccc23)c(C)nn1C (stereo not drawn) — higher, -2.24%
- O=C(O)CN1CCc2onc(C(c3ccccc3)c3ccccc3)c2C1 — higher, -3.48%
- Cc1ccccc1C1CCN(C(=O)CCNC(=O)C(C)(C)C)C1 (stereo not drawn) — higher, -1.33%
- Cc1cc(C)n(CC2CCCN2C(=O)CCc2cscn2)n1 (stereo not drawn) — lower, -8.27%
- CCCc1n[nH]c(C2CN(CCNS(C)(=O)=O)CCO2)n1 (stereo not drawn) — higher, 25.5%
- Cc1cccc(C)c1-n1nnnc1C1(NCc2ccco2)CCCC1 — lower, -6.25%
- CCc1cc(N(C)Cc2[nH]nc3c2CCC3)nc(N2CCOCC2)n1 — lower, -15.5%
- Cc1cccc(-c2noc(CN3CCCC3Cn3cccn3)n2)c1 (stereo not drawn) — higher, 8.86%
- COc1ccc(C(=O)N2CCC(Oc3ccccc3)(C(=O)O)CC2)o1 — higher, 2.93%
- O=C(c1ccncc1)N1CCC2(CC1)CCN(Cc1ccccn1)C2=O — higher, 15.2%
- CC(C)CNC(=O)CNC(=O)Nc1cccc(Cl)c1-n1cccn1 — higher, 1.42%
- CCn1cc2c(n1)C(COC)CN(Cc1ccccn1)C2 (stereo not drawn) — higher, 29.7%
- COc1ncccc1CN1C[C@@H]2COC[C@]2(CNS(C)(=O)=O)C1 — lower, -13.2%
- CCN(Cc1ccncc1)C(=O)c1cn(CC2CCCNC2)nn1 (stereo not drawn) — lower, -17.4%
- O=C(c1ccco1)N1CCOCC2(CCN(C3CCOCC3)C2)C1 (stereo not drawn) — lower, -8.45%
- CC(c1ccncc1)N1Cc2nc(N(C)C)ncc2C1=O (stereo not drawn) — higher, -2.18%
